# Assay results from ChEMBL document CHEMBL1156518, “A mouse model for nonsense mutation bypass therapy shows a dramatic multiday response to geneticin” (Proc Natl Acad Sci U S A, 2007).
# The source made the active and inactive calls. The calls are words filed in the database; no cut-off is given here.
# Assays:
# Mus musculus [1] = assay: Increase in human F9 nonsense R338X mutant antigen coagulant activity in C57B/6J mouse plasma at 28 mg/kg, sc administered daily for 7 days after 9 hrs by ELISA; assay type: functional; details: route subcutaneous
# Mus musculus [2] = assay: Increase in human F9 nonsense R338X mutant antigen coagulant activity in C57B/6J mouse plasma at 28 mg/kg, sc administered daily for 2 days after 9 hrs; assay type: functional; details: route subcutaneous
# [3] = Half life in C57BL/6J hemophilia B mouse model at 28 mg/kg, sc for 2 days; assay type: ADME, organism-based; design: dose 28 mg/kg, route subcutaneous; details: in vivo
# Mus musculus [4] = assay: Increase in human F9 nonsense R338X mutant antigen level per 100 ul of plasma in C57B/6J mouse model at 28 mg/kg, sc administered daily for 2 days after 2 hrs by ELISA; assay type: functional; details: route subcutaneous
# Mus musculus [5] = assay: Increase in human F9 nonsense R338X mutant antigen coagulant activity in C57B/6J mouse plasma at 7 mg/kg, sc administered daily for 2 days after 2 hrs; assay type: functional; details: route subcutaneous
# Mus musculus [6] = assay: Increase in human F9 nonsense R338X mutant antigen coagulant activity in C57B/6J mouse plasma at 28 mg/kg, sc administered daily for 2 days after 2 hrs; assay type: functional; details: route subcutaneous
# Mus musculus [7] = assay: Increase in human F9 nonsense R338X mutant antigen level per 100 ul of plasma in C57B/6J mouse model at 7 mg/kg, sc administered daily for 2 days after 2 hrs by ELISA; assay type: functional; details: route subcutaneous
# Mus musculus [8] = assay: Increase in human F9 nonsense R338X mutant antigen level per 100 ul of plasma in C57B/6J mouse model at 42 mg/kg, sc administered daily for 2 days after 9 hrs by ELISA; assay type: functional; details: route subcutaneous
# Mus musculus [9] = assay: Increase in human F9 nonsense R338X mutant antigen level per 100 ul of plasma in C57B/6J mouse model at 14 mg/kg, sc administered daily for 2 days after 2 hrs by ELISA; assay type: functional; details: route subcutaneous
# Mus musculus [10] = assay: Increase in human F9 nonsense R338X mutant antigen coagulant activity in C57B/6J mouse plasma at 42 mg/kg, sc administered daily for 2 days after 9 hrs; assay type: functional; details: route subcutaneous
# Mus musculus [11] = assay: Increase in human F9 nonsense R338X mutant antigen level per 100 ul of plasma in C57B/6J mouse model at 28 mg/kg, sc administered daily for 2 days after 9 hrs by ELISA; assay type: functional; details: route subcutaneous
# Mus musculus [12] = assay: Increase in human F9 nonsense R338X mutant antigen coagulant activity in C57B/6J mouse plasma at 28 mg/kg, sc administered daily for 7 days after 3 hrs by ELISA; details: route subcutaneous
# [13] = Elimination half life in C57BL/6J hemophilia B mouse model liver at 28 mg/kg, sc for 2 days; assay type: ADME, organism-based; design: dose 28 mg/kg, route subcutaneous
# Mus musculus [14] = assay: Increase in human F9 nonsense R338X mutant antigen coagulant activity in C57B/6J mouse plasma at 14 mg/kg, sc administered daily for 2 days after 2 hrs; assay type: functional; details: route subcutaneous
# [15] = Toxicity in C57BL/6J hemophilia B mouse model at 28 mg/kg, sc; assay type: organism-based; design: dose 28 mg/kg, route subcutaneous; details: in vivo
# Mus musculus [16] = assay: Increase in human F9 nonsense R338X mutant antigen coagulant activity in C57B/6J mouse plasma at 28 mg/kg, sc administered daily for 7 days after 9 hrs by ELISA
structure (smiles),measurement,setting,value
CN[C@@H]1[C@@H](O)[C@@H](O[C@@H]2[C@@H](O)[C@H](O[C@H]3O[C@H]([C@@H](C)O)[C@@H](O)[C@H](O)[C@H]3N)[C@@H](N)C[C@H]2N)OC[C@]1(C)O [GENETICIN],Activity,Mus musculus [1],43.9 ng
same,Activity,Mus musculus [2],8.03%
same,half-life,[3],0.25 h
same,Activity,Mus musculus [4],8.75 ng
same,Activity,Mus musculus [5],4.55%
same,Activity,Mus musculus [6],6.94%
same,Activity,Mus musculus [7],2.28 ng
same,Activity,Mus musculus [8],13.57 ng
same,Activity,Mus musculus [9],5.79 ng
same,Activity,Mus musculus [10],4.98%
same,Activity,Mus musculus [11],27.28 ng
same,Activity,Mus musculus [12],22.8 ng
same,half-life,[13],80 h
same,Activity,Mus musculus [14],6.18%
same,LD50,[15],1300 mg/kg
same,Activity,Mus musculus [16],Active
